Key:
[1] = Animal study: oral gavage every other day for two weeks, body weight; format: in vivo, mouse
Experimental: Following a similar protocol as previously reported for SINE treatment in the context of cancer (Arango et al., 2017; Azmi et al., 2013; Hing et al., 2016; Zheng et al., 2014), KPT-330 was administered at a dose 10 mg/kg via oral gavage every other day over a two-week span in C57BL/6 wild-type mice, and body weight was monitored for any clear toxicity. […] Given animal weight loss on the standard chemotherapeutic dosage regimen, and additional evidence that sustained dosage of SINEs adversely impacts T cell populations (Tyler et al., 2017), Applicants sought to explore dosing regimens well below 10 mg/kg, to see if a pro-Paneth phenotype may exist below potential toxicities. […] Applicants tracked animal weight every other day, and at day 14 collected the proximal and distal thirds of the small intestine for histological quantification of Paneth, stem, and goblet populations (FIG. 26A). […] Paneth cells were counted within well preserved crypts, with at minimum 30 crypts quantified per animal (representative images FIG. 30C) and then averaged to get mean Paneth cells per crypt in distal and proximal thirds of the small intestine. […] Applicants additionally quantified the abundance of Olfm4+ stem cells as well as PAS+ goblet cells within the same animals to ascertain whether the effect of SINE treatment was restricted to the Paneth cell compartment (representative images FIG. 30D,E). […]

[2] = system: ENR+CD organoids (ISC to Paneth cell differentiation); experiment: Primary screen: basal (non-stimulated) lysozyme secretion LYZ.NS, 2.5-D 384-well ENR+CD organoid differentiation; format: cell-based, mouse; settings: for Dose.FC.LYZ.NS (log2 fold change) / Z.LYZ.NS (standard z score): primary screen
Text: High-throughput screening.

[3] = system: ENR+CD organoids (ISC to Paneth cell differentiation); experiment: Secondary (validation) screen: LYZ.S CCh-stimulated lysozyme secretion, 2.5-D 384-well ENR+CD organoids; format: cell-based, mouse; settings: for Dose.FC.LYZ.S: 6-day ENR+CD, vs ENR+CD+DMSO

SMILES: O=C(/C=C\n1cnc(-c2cc(C(F)(F)F)cc(C(F)(F)F)c2)n1)NNc1cnccn1 [KPT-330]
- body weight ([1]; 10 mg/kg oral gavage every other day): significant weight loss
- body weight ([1]; 0.2, 0.05 and 0.01 mg/kg oral gavage every other day): no significant changes in animal weight at any dose
- primary screen hit call (SSMD and z-scored FC cutoffs in both LYZ assays) ([2]; LYZ.NS and LYZ.S, 0.08-10 uM, 6 days ENR+CD): sole hit in their respective pathway
- Dose.FC.LYZ.NS (log2 fold change) ([2]; dose 0.08 uM): 0.200
- Z.LYZ.NS (standard z score) ([2]; dose 0.08 uM): 1.745
- Dose.FC.LYZ.NS (log2 fold change) ([2]; dose 0.40 uM): −0.266
- Z.LYZ.NS (standard z score) ([2]; dose 0.40 uM): −2.317
- Dose.FC.LYZ.NS (log2 fold change) ([2]; dose 2.00 uM): −0.280
- Z.LYZ.NS (standard z score) ([2]; dose 2.00 uM): −2.439
- Dose.FC.LYZ.NS (log2 fold change) ([2]; dose 10.00 uM): −0.284
- Z.LYZ.NS (standard z score) ([2]; dose 10.00 uM): −2.470
- Dose.FC.LYZ.S ([3]; 0.02 uM): −0.004 log2 fold change
- Dose.FC.LYZ.S ([3]; 0.04 uM): −0.077 log2 fold change
- Dose.FC.LYZ.S ([3]; 0.08 uM): 0.134 log2 fold change
- Dose.FC.LYZ.S ([3]; […]): 0.215 log2 fold change
- increase in stimulated LYZ secretion (LYZ.S) relative to ENR+CD control ([3]; validated dose-treatments, mean fold change vs ENR+CD+DMSO): 50-75%
